Values of other authors, collected in patent US20230139125A1, “DIETARY SUPPLEMENT FOR IMPROVING BRAIN PERFORMANCE” (priority 2021, published 2023).

Experiments:
[1] = system: age-related memory loss; conditions: end of six-month period; participants with relatively low memory scores at start; compared to placebo
[2] = system: brain-derived neurotrophic factor (i.e. BDNF); conditions: ingesting small amounts

| Substance | memory [1] | brain-derived neurotrophic factor (i.e. BDNF) [2] |
| --- | --- | --- |
| Phosphatidylserine [PS] | significant improvement in memory |  |
| chlorogenic acids |  | not obtained |
